Experimental data from article PMC7582770, “Synthesis of “All-Cis” Trihydroxypiperidines from a Carbohydrate-Derived Ketone: Hints for the Design of New β-Gal and GCase Inhibitors” (Molecules, 2020).
“Also recorded” adds a separate entry of the source.

Tests used:
[1] = target: T1, GCase in fibroblasts with the N370S/RecNcil mutation (Homo sapiens, UniProt P04062, N409S); assay: Pharmacological chaperoning activity (GCase activity in Gaucher patient fibroblasts); type: cell-based; conditions: six concentrations (10 nM to 100 µM), 4 days incubation
T1 construct: Fibroblasts with the N370S/RecNcil mutation from patients with Gaucher disease; host or cells: human Gaucher patient fibroblasts, N370S/RecNciI
T1 sequence (P04062 40-536 N409S): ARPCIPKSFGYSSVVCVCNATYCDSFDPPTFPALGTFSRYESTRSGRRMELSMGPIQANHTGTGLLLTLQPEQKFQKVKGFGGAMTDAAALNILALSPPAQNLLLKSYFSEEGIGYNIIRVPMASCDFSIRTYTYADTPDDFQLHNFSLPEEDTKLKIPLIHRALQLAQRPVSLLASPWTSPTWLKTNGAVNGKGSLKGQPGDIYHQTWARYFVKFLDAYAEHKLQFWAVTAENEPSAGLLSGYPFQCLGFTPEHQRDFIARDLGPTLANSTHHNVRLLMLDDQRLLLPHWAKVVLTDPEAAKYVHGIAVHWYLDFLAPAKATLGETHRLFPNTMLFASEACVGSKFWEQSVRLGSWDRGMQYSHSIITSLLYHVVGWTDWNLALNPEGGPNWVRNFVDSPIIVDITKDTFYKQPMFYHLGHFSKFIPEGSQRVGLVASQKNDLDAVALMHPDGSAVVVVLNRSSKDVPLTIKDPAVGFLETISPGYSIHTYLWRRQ
Procedure: (§1) Fibroblasts with the N370S/RecNcil mutation from patients with Gaucher disease were obtained from the “Cell line and DNA Biobank from patients affected by Genetic Diseases” (Gaslini Hospital, Genova, Italy). Fibroblasts cells (15.0 × 10^4) were seeded in T25 flasks with DMEM supplemented with fetal bovine serum (10%), penicillin/streptomycin (1%), and glutamine (1%) and incubated at 37 °C with 5% CO2 for 24 h. The medium was removed, and fresh medium containing compound 10 was added to the cells and left for 4 days. The medium was removed, and the cells were washed with PBS and detached with trypsin to obtain cell pellets, which were washed four times with PBS, frozen, and lysed by sonication in water. Enzyme activity was measured as reported above. Reported data are mean S.D. (n = 2).
(§2) Pharmacological chaperoning activity
Fibroblasts with the N370S/RecNcil mutation from Gaucher disease patients were obtained from the “Cell line and DNA Biobank from patients affected by Genetic Diseases” (Gaslini Hospital, Genova, Italy). Fibroblasts cells (20.0 x 104) were seeded in T25 flasks with DMEM supplemented with fetal bovine serum (10%), penicillin/streptomycin (1%), and glutamine (1%) and incubated at 37 °C with 5% CO2 for 24 h. The medium was removed, and fresh medium containing the compounds 9, 10 or 12 at different concentrations (10 nM, 100 nM, 1 µM, 10 µM, 50 µM, 100 µM) was added to the cells and left for 4 days. The medium was removed, and the cells were washed with PBS and detached with trypsin to obtain cell pellets, which were washed four times with PBS, frozen and lysed by sonication in water. Enzyme activity was measured as reported above. Reported data are mean S.D. (n=2).
Figure S52: GCase activity in human fibroblasts derived from GD patients bearing N370/RecNcil mutations in the presence of compound 9.
Figure S53: GCase activity in human fibroblasts derived from GD patients bearing N370/RecNcil mutations in the presence of compound 10. The flasks containing cells incubated with 100 µM and 50 µM […]

[2] = system: human fibroblasts derived from Gaucher patients; assay: Toxicity / cell viability in Gaucher patient fibroblasts during chaperoning assay; type: cell-based; conditions: at 50 and 100 µM, 4 days
Procedure: as §1, §2
Fibroblasts with the N370S/RecNcil mutation from Gaucher disease patients were obtained from the “Cell line and DNA Biobank from patients affected by Genetic Diseases” (Gaslini Hospital, Genova, Italy). Fibroblasts cells (20.0 x 104) were seeded in T25 flasks with DMEM supplemented with fetal bovine serum (10%), penicillin/streptomycin (1%), and glutamine (1%) and incubated at 37 °C with 5% CO2 for 24 h. […] Enzyme activity was measured as reported above. […]

[3] = system: β-N-acetylglucosaminidase EC 3.2.1.52; assay: Commercial glycosidase screening; type: biochemical, bovine kidney; conditions: 0.1 mM inhibitor
From the text: (§3) A panel of 12 commercial glycosidases (α-L-fucosidase EC 3.2.1.51 from Homo sapiens, α-galactosidase EC 3.2.1.22 from coffee beans, β-galactosidases EC 3.2.1.23 from Escherichia coli and Aspergillus oryzae, α-glucosidases EC 3.2.1.20 from yeast and rice, amyloglucosidase EC 3.2.1.3 from Aspergillus niger, β-glucosidase EC 3.2.1.21 from almonds, α-mannosidase EC 3.2.1.24 from Jack beans, β-mannosidase EC 3.2.1.25 from snail, β-N-acetylglucosaminidases EC 3.2.1.52 from Jack beans and bovine kidney) purchased from Sigma-Aldrich (St. Louis, MO, USA) or Megazyme Ltd. (Bray, Co. Wicklow, Ireland) was screened.
(§4) The percentage (%) of inhibition towards the corresponding glycosidase was determined in quadruplicate in the presence of 100 μM of the inhibitor on the well. Each enzymatic assay (final volume 0.12 mL) contains 0.01–0.5 units/mL of the enzyme (with previous calibration) and 4.2 mM aqueous solution of the appropriate p-nitrophenyl glycopyranoside (substrate) buffered to the optimal pH of the enzyme. Enzyme and inhibitor were preincubated for 5 min at room temperature, and the reaction started by addition of the substrate. After 20 min of incubation at 37 °C, the reaction was stopped by the addition of 0.1 mL of sodium borate solution (pH 9.8). The p-nitrophenolate formed was measured by visible absorption spectroscopy at 405 nm (Asys Expert 96 spectrophotometer, Biochrom Ltd., Cambridge, England). Under these conditions, the p-nitrophenolate released led to optical densities linear with both reaction time and concentration of the enzyme (for more details, see the Supplementary Materials). The IC50 value (concentration of inhibitor required for 50% inhibition of enzyme activity) was determined from plots of % inhibition vs. different inhibitor concentrations. Each point of the graph is the average of four measures. The standard deviation for each point has been also represented in the graph.

[4] = system: α-glucosidase EC 3.2.1.20; assay: Commercial glycosidase screening; type: biochemical, yeast; conditions: 0.1 mM inhibitor
From the text: as §3, §4

SMILES | GCase enzyme rescue (chaperoning activity) [1] | toxicity / cell viability [2] | % Inhibition at 0.1 mM, β-N-acetylglucosaminidase bovine kidney [3] | % Inhibition at 0.1 mM, α-glucosidase yeast [4] | melting point
CCCCCCCCCO[C@H]1CNC[C@@H](O)[C@H]1O [compound 9, (3S, 4R, 5R)-4,5-Dihydroxy-3-(Nonyloxy) Piperidine] | did not impart any enzyme rescue; also recorded: None of the compounds gave enzyme rescue |  |  |  | 
CCCCCCCCCCCCN[C@H]1CNC[C@@H](O)[C@H]1O [compound 10, (3R, 4S, 5S)-3,4-Dihydroxy-5-(Dodecylamino) Piperidine] | failed to rescue the enzyme activity; also recorded: did not impart any enzyme rescue; also recorded: None of the compounds gave enzyme rescue | low cell viability; also recorded: remarkable toxicity | - (no inhibition detected) | - (no inhibition detected) | 92 to 94 °C
CCCCCCCC[C@]1(O)CNC[C@@H](O)[C@H]1O [compound 12, (3S, 4R, 5R)-3,4,5-Trihydroxy-3-Octyl-Piperidine] | did not impart any enzyme rescue; also recorded: None of the compounds gave enzyme rescue |  | - (no inhibition detected) | - (no inhibition detected) | 
CCCCCCCCCO[C@@H]1CNC[C@@H](O)[C@H]1O [compound 21, (3R, 4R, 5R)-4,5-Dihydroxy-3-(Nonyloxy) Piperidine] |  |  | - (no inhibition detected) | - (no inhibition detected) | 
